Test results: patent publication US20250122191A1, “COMPOUNDS AS BCL-2 INHIBITORS” (Fochon Biosciences, Ltd, priority 2021, published 2025)

Assays:
Assay type in all cases: cell-based
[1] = system: RS4;11-BCL-2 D103E cells; assay: Cell proliferation assay (MTS), RS4;11-BCL-2 D103E engineered cells; settings: Homo sapiens, 72 h, read-out: RS4, 11 BCL2-D103E IC50
Text: MTS testing kit was purchased from Promega (Madison, WI, USA). The RPMI-1640, Fetal bovine serum and Penicillin-Streptomycin were purchased from BI (Biological Industries, Beit Haemek, Israel). Puromycin was purchased from Beyotime (shanghai, China). Dimethyl sulfoxide (DMSO) was purchased from Sigma (St. Louis., MO, USA). RS4;11-BCL-2 G101V (Cobioer Lot. #: CBD2021063013P4), RS4;11-BCL-2 D103E (Cobioer Lot. #: CBD2021063013P4), RS4;11-BCL-2 D103Y (Cobioer Lot. #: CBD2022012101P4) and RS4;11-BCL-2 F104L (Cobioer Lot. #: CBD2021063014P4) cells were cultured in RPMI1640 supplemented with 1 ug/mL puromycin, 100 U/mL Penicillin-Streptomycin and 10% FBS.
To investigate whether a compound is able to inhibit the activity of BCL-2 mutation in cells, a mechanism-based assay using engineered cell lines stably overexpressing BCL-2 mutation (RS4;11-BCL-2 G101V, RS4;11-BCL-2 D103E, RS4;11-BCL-2 D103Y, and RS4;11-BCL-2 F104L) was developed. In this assay, the inhibition of BCL-2 mutation was reflected by the inhibition of cell proliferation of engineered RS4;11 cells. Cells were plated into 96-well plates at optimized cell density (RS4;11-BCL-2 G101V: 5000 cells/well; RS4;11-BCL-2 D103E: 7500 cells/well; RS4;11-BCL-2 D103Y: 7500 cells/well; RS4;11-BCL-2 F104L: 5000 cells/well). Plates were incubated at 37° C., with 5% CO2 for 4 h (RS4;11-BCL-2 G101V, RS4;11-BCL-2 F104L) and 24 h (RS4;11-BCL-2 D103E, RS4;11-BCL-2 D103Y), respectively. Compounds were serially diluted and added to the plates with the final concentrations of 10000, 3333.3, 1111.1, 370.4, 123.5, 41.2, 13.7, 4.6 and 1.5 nM. Plates were incubated at 37° C., with 5% CO2 for 120 h (RS4; 11-BCL-2 G101V, RS4; 11-BCL-2 F104L) and 72 h (RS4;11-BCL-2 D103E, RS4;11-BCL-2 D103Y), respectively. 20 μl MTS was added into each well and the plates were incubated at 37° C., with 5% CO2 exactly for 2 h. The absorbance was measured by a microplate reader at 490 nm. IC50 values were calculated using GraphPad Prism 8.0 software.

[2] = system: RS4;11-BCL-2 G101V cells; assay: Cell proliferation assay (MTS), RS4;11-BCL-2 G101V engineered cells; settings: Homo sapiens, 120 h, read-out: RS4, 11 BCL2-G101V IC50
Procedure, shortened: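 Proliferation IC50 in RS4;11 lines engineered with BCL-2 mutations, measured by MTS at 490 nm after 72 h (D103E, D103Y) or 120 h (G101V, F104L) compound treatment at 37 °C.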

[3] = system: Toledo cells; assay: Cell proliferation assay (MTS), Toledo cells; settings: Homo sapiens, 72 h
Procedure, shortened: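 Toledo cells (RPMI-1640, 10% FBS) seeded at 30000 cells/well, rested 4 h, then exposed 72 h at 37 °C, 5% CO2 to compound at nine final concentrations, 1.5–10000 nM. Viability by MTS (2 h), absorbance at 490 nm. IC50 from the concentration-response.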

| SMILES | IC50 [1] [nM] | IC50 [2] [nM] | IC50 [3] [nM] |
| --- | --- | --- | --- |
| COc1cc(CN2CCN(C3CC4(CCN(c5ccc(C(=O)NS(=O)(=O)c6cnc(NC[C@H]7CC[C@](C)(O)CC7)c([N+](=O)[O-])c6)c(Oc6cc7c(F)c[nH]c7nc6OC)c5)CC4)C3)[C@H](c3ccccc3C(C)C)C2)cnc1OC [Example 123, 4-(2-((R)-4-((5,6-dimethoxypyridin-3-yl)methyl)-2-(2-isopropylphenyl)piperazin-1-yl)-7-azaspiro[3.5]nonan-7-yl)-2-((3-fluoro-6-methoxy-1H-pyrrolo[2,3-b]pyridin-5-yl)oxy)-N-((6-((((1r,4r)-4-hydroxy-4-methylcyclohexyl)methyl)amino)-5-nitropyridin-3-yl)sulfonyl)benzamide] | 1 | 1 |  |
| COCCN1CCN(C2CC3(CCN(c4ccc(C(=O)NS(=O)(=O)c5cnc(NC[C@H]6CC[C@](C)(O)CC6)c([N+](=O)[O-])c5)c(Oc5cc6c(F)c[nH]c6nc5OC)c4)CC3)C2)[C@H](c2ccccc2C(C)C)C1 [Example 129, 2-((3-fluoro-6-methoxy-1H-pyrrolo[2,3-b]pyridin-5-yl)oxy)-N-((6-((((1r,4r)-4-hydroxy-4-methylcyclohexyl)methyl)amino)-5-nitropyridin-3-yl)sulfonyl)-4-(2-((R)-2-(2-isopropylphenyl)-4-(2-methoxyethyl)piperazin-1-yl)-7-azaspiro[3.5]nonan-7-yl)benzamide] | 3 |  | 1 |
| CC(C)c1ccccc1[C@@H]1CN(C(C)C)CCN1C1CC2(CCN(c3ccc(C(=O)NS(=O)(=O)c4cnc(NC[C@H]5CC[C@](C)(O)CC5)c([N+](=O)[O-])c4)c(Oc4cnc5[nH]cc(F)c5c4)c3)CC2)C1 [Example 185, 2-((3-fluoro-1H-pyrrolo[2,3-b]pyridin-5-yl)oxy)-N-((6-((((1r,4r)-4-hydroxy-4-methylcyclohexyl)methyl)amino)-5-nitropyridin-3-yl)sulfonyl)-4-(2-((R)-4-isopropyl-2-(2-isopropylphenyl)piperazin-1-yl)-7-azaspiro[3.5]nonan-7-yl)benzamide] | 1 | 1 |  |
| CCOc1nc2[nH]cc(F)c2cc1Oc1cc(N2CCC3(CC2)CC(N2CCN(Cc4cnc(C5CC5)c(OC)c4)C[C@H]2c2ccccc2C(C)C)C3)ccc1C(=O)NS(=O)(=O)c1cnc(NC[C@H]2CC[C@](C)(O)CC2)c([N+](=O)[O-])c1 [Example 253, 4-(2-((R)-4-((6-cyclopropyl-5-methoxypyridin-3-yl)methyl)-2-(2-isopropylphenyl)piperazin-1-yl)-7-azaspiro[3.5]nonan-7-yl)-2-((6-ethoxy-3-fluoro-1H-pyrrolo[2,3-b]pyridin-5-yl)oxy)-N-((6-((((1r,4r)-4-hydroxy-4-methylcyclohexyl)methyl)amino)-5-nitropyridin-3-yl)sulfonyl)benzamide] | 3 | 1 |  |
| COc1cc(CN2CCN(C3CC4(CCN(c5ccc(C(=O)NS(=O)(=O)c6cnc(NC[C@H]7CC[C@](C)(O)CC7)c([N+](=O)[O-])c6)c(Oc6cnc7[nH]cc(F)c7c6)c5)CC4)C3)[C@H](c3ccccc3C(C)C)C2)cnc1OC [Example 259, 4-(2-((R)-4-((5,6-dimethoxypyridin-3-yl)methyl)-2-(2-isopropylphenyl)piperazin-1-yl)-7-azaspiro[3.5]nonan-7-yl)-2-((3-fluoro-1H-pyrrolo[2,3-b]pyridin-5-yl)oxy)-N-((6-((((1r,4r)-4-hydroxy-4-methylcyclohexyl)methyl)amino)-5-nitropyridin-3-yl)sulfonyl)benzamide] | 1 | 1 |  |
| CC(C)c1ccccc1[C@@H]1CN(CC2CCOCC2)CCN1C1CC2(CCN(c3ccc(C(=O)NS(=O)(=O)c4cnc(NC[C@H]5CC[C@](C)(O)CC5)c([N+](=O)[O-])c4)c(Oc4cnc5[nH]cc(F)c5c4)c3)CC2)C1 [Example 318, 2-((3-fluoro-1H-pyrrolo[2,3-b]pyridin-5-yl)oxy)-N-((6-((((1r,4r)-4-hydroxy-4-methylcyclohexyl)methyl)amino)-5-nitropyridin-3-yl)sulfonyl)-4-(2-((R)-2-(2-isopropylphenyl)-4-((tetrahydro-2H-pyran-4-yl)methyl)piperazin-1-yl)-7-azaspiro[3.5]nonan-7-yl)benzamide] | 1 | 1 |  |
| CC(C)c1ccccc1[C@@H]1CN(C2CCOCC2)CCN1C1CC2(CCN(c3ccc(C(=O)NS(=O)(=O)c4cnc(NC[C@H]5CC[C@](C)(O)CC5)c([N+](=O)[O-])c4)c(Oc4cnc5[nH]cc(F)c5c4)c3)CC2)C1 [Example 320, 2-((3-fluoro-1H-pyrrolo[2,3-b]pyridin-5-yl)oxy)-N-((6-((((1r,4r)-4-hydroxy-4-methylcyclohexyl)methyl)amino)-5-nitropyridin-3-yl)sulfonyl)-4-(2-((R)-2-(2-isopropylphenyl)-4-(tetrahydro-2H-pyran-4-yl)piperazin-1-yl)-7-azaspiro[3.5]nonan-7-yl)benzamide] | 1 | 1 |  |

The next lines start with results.

| IC50 [1] [nM] | IC50 [2] [nM] | SMILES | IC50 [3] [nM] |
| --- | --- | --- | --- |
| 1 | 1 | COc1nc2[nH]cc(F)c2cc1Oc1cc(N2CCC3(CC2)CC(N2CCN(C4CCC(OC)CC4)C[C@H]2c2ccccc2C(C)C)C3)ccc1C(=O)NS(=O)(=O)c1cnc(NC[C@H]2CC[C@](C)(O)CC2)c([N+](=O)[O-])c1 (stereo partly drawn) [Example 325, 2-((3-fluoro-6-methoxy-1H-pyrrolo[2,3-b]pyridin-5-yl)oxy)-N-((6-((((1r,4r)-4-hydroxy-4-methylcyclohexyl)methyl)amino)-5-nitropyridin-3-yl)sulfonyl)-4-(2-((R)-2-(2-isopropylphenyl)-4-(4-methoxycyclohexyl)piperazin-1-yl)-7-azaspiro[3.5]nonan-7-yl)benzamide] |  |
| 1 | 1 | COc1nc2[nH]cc(F)c2cc1Oc1cc(N2CCC3(CC2)CC(N2CCN(C[C@H]4COCCO4)C[C@H]2c2ccccc2C(C)C)C3)ccc1C(=O)NS(=O)(=O)c1cnc(NC[C@H]2CC[C@](C)(O)CC2)c([N+](=O)[O-])c1 [Example 328, 4-(2-((R)-4-(((S)-1,4-dioxan-2-yl)methyl)-2-(2-isopropylphenyl)piperazin-1-yl)-7-azaspiro[3.5]nonan-7-yl)-2-((3-fluoro-6-methoxy-1H-pyrrolo[2,3-b]pyridin-5-yl)oxy)-N-((6-((((1r,4r)-4-hydroxy-4-methylcyclohexyl)methyl)amino)-5-nitropyridin-3-yl)sulfonyl)benzamide] |  |
| 1 |  | CC(C)c1ccccc1[C@@H]1CN(Cc2ccc(S(C)(=O)=O)cc2)CCN1C1CC2(CCN(c3ccc(C(=O)NS(=O)(=O)c4cnc(NC[C@H]5CC[C@](C)(O)CC5)c([N+](=O)[O-])c4)c(Oc4cnc5[nH]cc(F)c5c4)c3)CC2)C1 [Example 329, 2-((3-fluoro-1H-pyrrolo[2,3-b]pyridin-5-yl)oxy)-N-((6-((((1r,4r)-4-hydroxy-4-methylcyclohexyl)methyl)amino)-5-nitropyridin-3-yl)sulfonyl)-4-(2-((R)-2-(2-isopropylphenyl)-4-(4-(methylsulfonyl)benzyl)piperazin-1-yl)-7-azaspiro[3.5]nonan-7-yl)benzamide] | 1 |
| 1 | 1 | CC(C)c1ccccc1[C@@H]1CN(C[C@H]2COCCO2)CCN1C1CC2(CCN(c3ccc(C(=O)NS(=O)(=O)c4cnc(NC[C@H]5CC[C@](C)(O)CC5)c([N+](=O)[O-])c4)c(Oc4cnc5[nH]cc(F)c5c4)c3)CC2)C1 [Example 330, 4-(2-((R)-4-(((S)-1,4-dioxan-2-yl)methyl)-2-(2-isopropylphenyl)piperazin-1-yl)-7-azaspiro [3.5]nonan-7-yl)-2-((3-fluoro-1H-pyrrolo[2,3-b]pyridin-5-yl)oxy)-N-((6-((((1r,4r)-4-hydroxy-4-methylcyclohexyl)methyl)amino)-5-nitropyridin-3-yl)sulfonyl)benzamide] |  |
